Measurements: the METLIN SMRT retention time set (Domingo-Almenara et al. 2019)

Assay: gradient 5% acetonitrile 3 min, to 50% in 2 min, to 85% in 15 min, held 3 min, 100 µL/min
Conditions: column: Zorbax Extend-C18 2.1 x 50 mm; eluents: water / acetonitrile, 0.1% formic acid
Summary of the method: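 The mobile phases were water and acetonitrile, each with 0.1% formic acid, pumped at 100 μL/min through a Zorbax Extend-C18 column (2.1 × 50 mm, 1.8 μm). Pure standards were injected as mixtures of ~100 molecules and detected by a quadrupole time-of-flight mass spectrometer in positive and negative ionization mode. Retention time came from computationally picked adduct peaks, each inspected by hand.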

Row | Compound | RP-LC retention time
1 | CC(C)(C)C(=O)Nc1ccc(NC(=O)C(C)(C)C)cc1 | 838 s
2 | CCCN1C(=O)COc2ccc(-c3noc(COc4ccc(Cl)cc4C)n3)cc21 | 1260 s
3 | Fc1cc(F)cc(-c2nnc(Cc3nc(-c4ccncc4)no3)o2)c1 | 780 s
4 | CC(=O)N1c2ccc(S(=O)(=O)N3CCCCC3)cc2CC1C(=O)N1CCC(C)CC1 (stereo not drawn) | 881 s
5 | COC(=O)C(Cc1ccccc1)NC(=O)Nc1cccn2c(C)nnc12 (stereo not drawn) | 685 s
6 | C=Cc1ccc(COC(=O)C2=CN(CC)S(=O)(=O)N=C2C)cc1 | 1030 s
7 | Cc1nnc2c(=O)n(CC(=O)NCc3ccc(Cl)cc3)c3cccnc3n12 | 703 s
8 | Cc1ccc(Cl)cc1NC(=O)C1CCN(S(C)(=O)=O)c2ccccc2O1 (stereo not drawn) | 954 s
9 | O=C1CCC2(O)[C@@H]3Cc4ccc(O)c5c4[C@]2(CCN3Cc2ccoc2)C1O5 (stereo partly drawn) | 609 s
10 | O=C(Cn1ccc2ccn(Cc3ccccc3)c2c1=O)NCc1ccccc1Cl | 888 s
11 | CC(=O)c1ccc(NC(=O)CN2C(=O)CCn3nc(-c4cn(C)c5ccccc45)cc32)cc1 | 791 s
12 | COc1cc(NC(=O)CSc2ccc(N3CCCC(C(=O)NC4CC4)C3)nn2)cc(OC)c1 (stereo not drawn) | 642 s
13 | COc1cccc(CC(=O)N2CCC3(CC2)NC(=O)c2ccc(Cl)cc2N3)c1 | 790 s
14 | CC(=O)Nc1ccc(-n2cnc(C(=O)N3CCN(c4ccc(Cl)cc4)CC3)c2)nc1 | 751 s
15 | Fc1ccc(CN2CCc3nc(N4CCOCC4)ncc3C2)cc1 | 608 s
16 | Cn1nc(C2CCN(S(=O)(=O)c3cccc(Cl)c3)CC2)n(C2CCCC2)c1=O | 925 s
17 | CCNC(=O)c1nn(-c2ccc(F)cc2)c(OC)cc1=O | 645 s
18 | CCCN1CCN(CCCNC(=O)C2CCCN(S(=O)(=O)c3ccc4c(ccn4C)c3)C2)CC1 (stereo not drawn) | 598 s
19 | CCC(CN(C)Cc1ccccc1)NC(=O)CN(c1ccccc1)S(=O)(=O)N(C)C (stereo not drawn) | 686 s
20 | CCc1cc2c(cc(C(=O)NCc3cccs3)n2C)s1 | 1010 s
21 | CCCOC(=O)C1=C(C)NC2=C(C(=O)C(C(=O)OC)C(C)C2)C1c1ccccc1F (stereo not drawn) | 954 s
22 | Cc1ccc(C2=NC3(CCN(C(=O)c4ccc(C(C)(C)C)cc4)CC3)ON2)cc1 | 975 s

Row | Compound | RP-LC retention time
23 | COc1cccc(NC(=O)N2CCC3(CC2)NC(=O)c2ccc(F)cc2N3C)c1 | 723 s
24 | CC1=NS(=O)(=O)N(C)C=C1C(=O)OCc1cc(C)ccc1C | 957 s
25 | Cc1ccc(C2NC(=O)N(CC(=O)Nc3ccc4c(c3)CCC4)C3=C2C(=O)OC3)cc1 (stereo not drawn) | 856 s
26 | COc1ccccc1Cc1noc(C2CN(C(=O)c3ccc4nsnc4c3)C2)n1 | 814 s
27 | O=C(NCc1cccs1)C1CCN(S(=O)(=O)c2cc(-c3noc(C4CCC4)n3)cs2)CC1 | 1000 s
28 | COc1cccc(NC(=O)c2c(O)c3cccnc3n(-c3ccccc3)c2=O)c1 | 1220 s
29 | CCc1nc2c(NC(=O)c3cccc(Br)c3)cccn2n1 | 951 s
30 | CCC(=O)Nc1ccc(-n2cnc(C(=O)N3CCN(c4cccc(OC)c4)CC3)c2)nc1 | 717 s
31 | COc1cc(CN2CC[C@@H]3CN(S(C)(=O)=O)[C@@H]3C2)ccc1F | 598 s
32 | Cc1ccc(Cl)cc1N1CCN(C(=O)c2ccc3c(c2)NC(=O)C2CCCCN32)CC1 (stereo not drawn) | 1080 s
33 | CCc1nc(-c2cc(S(=O)(=O)NCC(=O)NC3CCCc4ccccc43)c(C)s2)no1 (stereo not drawn) | 998 s
34 | Cc1nccn1Cc1noc(-c2ccc(Cl)cc2)n1 | 638 s
35 | CCc1ccc(N2CC(c3noc(-c4cc(OC)cc(OC)c4)n3)CC2=O)cc1 (stereo not drawn) | 1100 s
36 | O=C([C@@H]1C[C@H](F)CN1C(=O)Nc1cccc(F)c1)N1CCCCC1 | 708 s
37 | O=S(=O)(c1ccccc1)N1CCC(Cc2nncn2-c2ccccc2)C1 (stereo not drawn) | 709 s
38 | O=C(Cc1ccc(Cl)cc1)N1CC(n2cnnc2C2CC2)C1 | 649 s
39 | COc1ccc(-c2ncc3c(n2)CCN(C(=O)Nc2ccc(C)c(F)c2)C3)cc1 | 996 s
40 | CSc1ccc(-c2noc(Cc3nnc(-c4ccc(Cl)cc4)o3)n2)cc1 | 1120 s
41 | O=C(Nc1cccc(Cl)c1F)N1CCCC(Cn2c(C3CC3)nc3cccnc32)C1 (stereo not drawn) | 723 s
42 | CSc1ccc(C2c3[nH]c4ccccc4c3CCN2C(=O)c2ccco2)cc1 (stereo not drawn) | 1140 s
43 | COc1cc(-c2nc3ncccn3c2Nc2ccc(C)c(Cl)c2)ccc1O | 704 s
44 | O=C(NCc1ccccc1F)c1cc(=O)n2c(nc3ccccc32)s1 | 876 s

Row | Compound | RP-LC retention time
45 | Cc1cccc(NC(=O)Cn2nc3n(c2=O)CCCC3)c1C | 632 s
46 | CC(C)n1cnnc1CC1CN(C(=O)Nc2ccccc2Cl)C1 | 640 s
47 | CCc1onc(C)c1C1CCCN1C(=O)Nc1ccc(C)c(F)c1 (stereo not drawn) | 879 s
48 | Cc1cc(N2CCN(C)CC2)n2nc(CN3CCN(c4cccc(C)c4C)CC3)nc2n1 | 570 s
49 | COc1cccc(-c2cc3c(=O)n(Cc4nc(-c5ccc(Br)cc5)no4)ccn3n2)c1 | 1140 s
50 | Cc1ccc(C)c(CNC(=O)C2CCN(c3cnc4nccnc4c3)CC2)c1 | 722 s
51 | O=C(CC1c2ncccc2C(=O)N1Cc1ccc(F)cc1)NCc1cc(F)ccc1F (stereo not drawn) | 735 s
52 | CCCCN(CCCC)CCCOC(=O)c1ccc(N)cc1 | 738 s
53 | COc1ccc(-c2[nH]ncc2CN2C[C@@H]3CCN(S(C)(=O)=O)C[C@]3(CF)C2)cc1 | 590 s
54 | O=C1NCCOCCN(S(=O)(=O)c2cccc(F)c2)[C@H]2CCC[C@@H]12 | 748 s
55 | CCOC(=O)c1cccc(NC(=O)c2cc(C)nn2-c2ccccc2)c1 | 936 s
56 | COc1cc(OC)cc(-c2noc(CCn3nc(-c4ccccc4)ccc3=O)n2)c1 | 951 s
57 | O=C(O)c1nnn(-c2cccc(F)c2)c1-c1ccccn1 | 671 s
58 | O=C(O)C1CCN(S(=O)(=O)c2cccc([N+](=O)[O-])c2)CC1 | 663 s
59 | Cc1nn(C)c(C)c1CCC(=O)N1CCN(S(C)(=O)=O)CC1 | 543 s
60 | CCOC(=O)c1cnc2cc(Cl)c(OC)cc2c1N1CCN(c2cccc(Cl)c2)CC1 | 1240 s
61 | Cc1nc(-c2ccc(N3CCN(C(=O)c4ccc5c(c4)OCO5)CC3)nc2)sc1C | 813 s
62 | CCC(C)NS(=O)(=O)c1cccc(-c2nc(-c3ccccc3)no2)c1 (stereo not drawn) | 786 s
63 | CC(=O)N1CCc2cc(N3CC(C(=O)Nc4ccccc4C)CC3=O)ccc21 (stereo not drawn) | 692 s
64 | Cc1cc(C)cc(NC(=O)CSc2ccc(N3CCCC(C(=O)NC4CC4)C3)nn2)c1 (stereo not drawn) | 690 s
65 | COc1ccc(-c2noc(-c3nn(-c4ccc(OC)cc4)ccc3=O)n2)cc1 | 827 s
66 | COc1ccc(-c2cn3cccnc3n2)cc1NC(=O)c1ccccc1F | 706 s

Row | Compound | RP-LC retention time
67 | CC(C)OCCCNC(=O)COc1ccccc1-c1nnc(-c2ccccc2)o1 | 631 s
68 | O=C(NC1CCCC1)c1nc(Nc2ccc(F)cc2)c2ccccc2n1 | 824 s
69 | CC(C)NC(=O)C1CCN(c2nc3ccc(-c4cccs4)nc3s2)CC1 | 879 s
70 | CC(C)CCNC(=O)CCCn1c(=O)c2cccn2c2ccccc21 | 859 s
71 | O=C([C@@H]1C[C@H](F)CN1C(=O)c1ccccc1Cl)N1CCOCC1 | 619 s
72 | Cc1cc2oc(=O)c(C)c(C)c2c2c1C(=O)CC(c1ccc3c(c1)OCO3)O2 (stereo not drawn) | 1110 s
73 | Cc1ccc(OCC(=O)Nc2nnc(C3CC(=O)N(c4ccccc4)C3)o2)cc1 (stereo not drawn) | 765 s
74 | O=C(NCCN1CCOCC1)c1ccc2c(c1)CCCN2C(=O)c1ccccc1F | 602 s
75 | CCc1nn(CC)c(=O)c2cc(S(=O)(=O)N3CCC(Cc4ccccc4)CC3)cn12 | 1140 s
76 | CN1C(=O)Cc2ccccc2C1C(=O)NCc1ccc(F)cc1 (stereo not drawn) | 706 s
77 | Cc1cc(C)n(-c2ccnc(N3CCC(C(=O)NCc4ccccn4)CC3)n2)n1 | 610 s
78 | Cc1ccc(C(=O)COc2cc(O)c3c(=O)cc(-c4ccccc4)oc3c2)cc1 | 1210 s
79 | Cc1ccc(CN(C(=O)c2ccc(OCC(C)C)cc2)C2CCS(=O)(=O)C2)o1 (stereo not drawn) | 1060 s
80 | CC(C)c1nnc(NC(=O)C2CCN(C(=O)c3ccccc3F)CC2)s1 | 727 s
81 | COC(=O)c1ccc2c(=O)n(-c3cc(F)cc(F)c3)c(N3CCN(c4ccccn4)CC3)nc2c1 | 753 s
82 | CCC(=O)Nc1ccc2c(c1)Sc1ncccc1C(=O)N2CC | 655 s
83 | O=C(NCCCN1CCCC1)c1cc2n(n1)CCCN(Cc1ccc(Cl)cc1)C2=O | 640 s
84 | COCCN1C(=O)CCc2cc(NS(=O)(=O)c3cc(C)c(C)cc3C)ccc21 | 833 s
85 | CCCN(CC1CCOC1)S(=O)(=O)c1cc(F)ccc1C (stereo not drawn) | 943 s
86 | CC(C)CC(=O)N1CCC(CC(=O)N2CCOCC2)C1 (stereo not drawn) | 622 s
87 | CCOc1ccc(-n2nnc(C(=O)Nc3cccc(Cl)c3C)c2C)cc1 | 1120 s
88 | CCCN1C(=O)c2cc(S(=O)(=O)NC(C)C)ccc2Oc2cccnc21 | 960 s
